Patent US9376406B2, “uPAR-uPA interaction inhibitors and methods for treating cancer” (Indiana University Research and Technology Corporation, priority 2011, dated 2016)
Where two headings read alike, the source gives them in different places.

How the values were obtained:
[1] = system: integrins (phospho p44/42 MAPK, p44/42 MAPK, pSrc Y416, Src, pFAK Y397, FAK); assay: Integrin signaling by gel electrophoresis; format: cell-based
[2] = system: TMD-231 cells; assay: xenograft mice model of breast cancer metastasis; format: in vivo
Protocol: in vivo Efficacy of IPR-803 in xenograft mice model of cancer. Breast Cancer Metastasis. The Example is performed as described in Wang et al. (2011) Virtual Screening Targeting the Urokinase Receptor, Biochemical and Cell-Based Studies, Synthesis, Pharmacokinetic Characterization, and Effect on Breast Tumor Metastasis. J Med Chem In press, the disclosure of which is incorporated herein in its entirety. Briefly, TMD-231 cells are inoculated into the mammary fat pad of female NOD/SCID mice. Dosing is initiated at day 15 post implantation. Animals are randomized and treated with vehicle or with test compound by daily oral gavage at a dose of 200 mg/kg.
While uPAR's effects on growth are known to be minimal, its role in promoting invasion and metastasis is widely established. To assess the effect of IPR-803 on metastasis, control and experimental animals were sacrificed and organs (lungs) were removed and evaluated for the presence of tumors. The number and size of metastasis in two to five fields per sample were calculated. A score of 4+ was given to a sample with highest metastasis index and relative metastasis in other samples are calculated (i.e., 1+, 2+, 3+) by a sample-blinded pathologist. […] For example, 11 out of 13 untreated mice developed severe (score=3) or marked (score=4) metastasis to the lung. This is compared to only 4 in the treated mice. Among the treated mice, 4 developed moderate metastasis, and another four were scored at 1 or lower, showing mild metastasis to the lungs.
IPR-803 was administered at 200 mg/kg p.o. to test animals, and conventional evaluation of cancer progression and survival measurements were made. […] It is observed that there is a greater percentage of mild an moderate outcomes in the treatment group compared to the untreated group showing a majority of severe outcomes. In addition, whole animal toxicity was evaluated by periodic measurement of weight change in test animals.

[3] = target: T1, uPAR (Homo sapiens, UniProt Q03405); assay: Fluorescence polarization, direct binding to uPAR; conditions: excitation 530 nm, emission 600 nm
T1 construct: uPAR comprising amino acids 1-277 was expressed in Drosophila S2 cells; made in house; host or cells: Drosophila S2 cells
Protocol: Fluorescence polarization in the presence and absence of protein and were measured using identical conditions as described above.
The mP was evaluated in the a presence and absence of competing 10 μM GFD.

[4] = in vivo pharmacokinetics in mice
Protocol: in vivo Pharmacokinetics of IPR-803 in mice. Compounds are administered to mice via a single dose of 200 mg/kg by oral gavage using a formulation of saline. Blood ([…]) is taken from the mice at their tails at time intervals of 1, 2, 4, 6, 8 and 10 hours (three time points from each of the 18 mice (21)) post injection. Blood plasma samples are prepared by centrifugation for quantification and HPLC-MS/MS analysis. […] The stability of the compounds in plasma is reflected by the half-life (t1/2). To gain insight into its absorption following oral dosing, intravenous bioavailability of compounds described herein is determined. Compounds are injected intravenously (IV) into the tail vein. Blood plasma samples are prepared from collected blood samples at 5, 10, 20, 45 and 120 minutes (three mice per time point). […] The levels of the compound in tumor tissue remained high even after 10 hours.

[5] = cellular studies, cytotoxicity of IPR-803; format: cell-based
[6] = mouse, plasma, po, 200 mg/kg p.o.

T1 sequence (Q03405 23-299): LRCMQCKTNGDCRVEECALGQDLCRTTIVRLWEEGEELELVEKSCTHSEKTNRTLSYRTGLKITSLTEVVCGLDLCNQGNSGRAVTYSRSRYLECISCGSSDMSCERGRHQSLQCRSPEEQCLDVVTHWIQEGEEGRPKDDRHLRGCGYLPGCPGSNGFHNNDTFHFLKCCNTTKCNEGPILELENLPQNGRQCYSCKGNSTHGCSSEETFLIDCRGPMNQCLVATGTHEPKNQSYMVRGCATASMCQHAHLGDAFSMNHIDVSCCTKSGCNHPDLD

SMILES: O=C(O)c1cccc(Nc2cc(N3CCCCCC3)c3noc4c3c2C(=O)c2ccccc2-4)c1 [IPR-803, 3-((3-(azepan-1-yl)-6-oxo-6H-anthra[1,9-cd]isoxazol-5-yl)amino)benzoic acid]
- signaling effect on pathways implicated with growth, such as ERK [1]: does not have a signaling affect
- outcome (cancer progression and survival) compared to vehicle ([2]; 200 mg/kg p.o., n=15): statistically significant (p<0.013) improvement in outcome
- weight change (whole animal toxicity) ([2]; 200 mg/kg p.o., n=15, vs vehicle control): No significant weight change
- number of mice scored at 1 or lower, mild metastasis to the lungs ([2]; treated mice): four
- number of mice with moderate metastasis ([2]; treated mice): 4
- number of mice with severe (score=3) or marked (score=4) metastasis to the lung ([2]; treated mice): 4
- tumor volume ([2]; treated mice, 200 mg/kg daily oral gavage, 33 day study): ~693 mm^3
- effects on tumor size ([2]; treated vs untreated): ~10%
- fluorescence polarization (mP) with increasing uPAR concentration [3]: showed a dose response with increasing mP
- Cl/F ([4]; 200 mg/kg p.o.): 0.379 L/h
- level in the primary tumor ([4]; LC/MS/MS at 1, 2, 4, 6, and 8 hour intervals): ~10 µM
- levels of the compound in tumor tissue ([4]; after 10 hours): remained high
- bioavailability ([4]; mouse, plasma, oral, 200 mg/kg, estimated from p.o. and IV data): ~4%
- AUC(0-inf) [4, 6]: 13700 ng·h/mL
- AUC(0-t) [4, 6]: 11300 ng·h/mL
- Tmax [4, 6]: 1 h
- half-life [4, 6]: 282 min
- Cmax ([4]; mouse, plasma, po, 200 mg/kg p.o., read-out: Cmax): 2600 ng/mL
- Vd/F ([4]; mouse, plasma, po, 200 mg/kg p.o., read-out: Vdss/F): 2.23 L
- Cmax ([4]; mouse, plasma, mice, 200 mg/kg oral gavage, saline, read-out: maximum concentration (Cmax) in plasma): 5 µM
- cytotoxicity [5]: not cytotoxic
